Test: recombinant UMI read abundance after kanamycin selection (control-corrected) (log10(CPM+1)); higher = more efficient recombination; extreme values may be limits of the assay; sequences stand for … in AGTGCAGAGAAAATCGGCCAGTTTTCTCTGCCTGCAGTCCGCATGCCGTGGGACCCCTTGGGTTCTAACCTGTTGCCTAGATTTATGCAGCGGACTGCCTTTCTCCCAAAGTGATAAACCGG…AGGTTGGTTTCACT; site = the 11-nt donor
Procedure, shortened: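 Pooled Escherichia coli screen of donor and donor-binding-loop pairs for the IS621 bridge recombinase. Each pair sits with a 12-nt UMI on a plasmid carrying a promoterless kanamycin gene. The library was co-electroporated with a target plasmid encoding a fixed target and T7-inducible recombinase, then plated with IPTG (0.07 mM) plus kanamycin, or unselected, each in two replicates. Recombinant UMIs were PCR-amplified across the donor–target junction and sequenced. Counts became CPM, averaged over replicates, scaled by control-derived factors and reported as log10(CPM+1).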
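Throughout, for recombinant UMI read abundance after kanamycin selection (control-corrected): IS621 bridge recombinase in Escherichia coli cells against a fixed T5 target plasmid.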
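Throughout, for recombinant barcode read abundance after kanamycin selection (control-corrected): IS621 recombinase and bridge RNA in Escherichia coli cells.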

Point of comparison: “TTGTGCTCATGGACCGGTTTTCCCGGTAATCCGTATTTGGG (site TTGTGCTCTCC)”, “recombinant UMI read abundance (log10)” value 0.0159. Against it:
- TTGCGTTCATGGACCGGTTTTCCCGGTAATCCGTATTTGTC (site TTGCGTTCTGA) — within 0.2 log units, 0
- TTGCTGGCATGGACCGGTTTTCCCGGTAATCCGTATTTGAG (site TTGCTGGCTCT) — within 0.2 log units, 0
- TTGCTTACATGGACCGGTTTTCCCGGTAATCCGTATTTGAC (site TTGCTTACTGT) — within 0.2 log units, 0
- TTGGAATCATGGACCGGTTTTCCCGGTAATCCGTATTTGCG (site TAGGAATCTCG) — higher, 1.81
- TTGGAATCATGGACCGGTTTTCCCGGTAATCCGTATTTGCG (site TCGGAATCTCG) — higher, 0.968
- TTGGAATCATGGACCGGTTTTCCCGGTAATCCGTATTTGCG (site TGGGAATCTCG) — within 0.2 log units, 0.00536
- TTGGAATCATGGACCGGTTTTCCCGGTAATCCGTATTTGCG (site TTGGAATCTCG) — higher, 2.27
- TTGGCAACATGGACCGGTTTTCCCGGTAATCCGTATTTGCT (site TTGGCAACTAG) — within 0.2 log units, 0.0704
- TTGGCTGCATGGACCGGTTTTCCCGGTAATCCGTATTTGTG (site TTAGCTGCTCA) — within 0.2 log units, 0.0254
- TTGGCTGCATGGACCGGTTTTCCCGGTAATCCGTATTTGTG (site TTCGCTGCTCA) — within 0.2 log units, 0.0142
- TTGGCTGCATGGACCGGTTTTCCCGGTAATCCGTATTTGTG (site TTGGCTGCTCA) — within 0.2 log units, 0.00853
- TTGGCTGCATGGACCGGTTTTCCCGGTAATCCGTATTTGTG (site TTTGCTGCTCA) — within 0.2 log units, 0.0121
- TTGGTAACATGGACCGGTTTTCCCGGTAATCCGTATTTGAG (site TTGGTAACTCT) — higher, 0.734
- TTGGTACCATGGACCGGTTTTCCCGGTAATCCGTATTTGCA (site TTGGTACCTTG) — within 0.2 log units, 0.00424
- TTGGTTCCATGGACCGGTTTTCCCGGTAATCCGTATTTGTG (site TTGGTTCCTCA) — within 0.2 log units, 0.0354
- TTGTAAGCATGGACCGGTTTTCCCGGTAATCCGTATTTGCA (site TTGTAAGCTTG) — higher, 1.17
- TTGTCGACATGGACCGGTTTTCCCGGTAATCCGTATTTGTC (site TTGTCGACTGA) — higher, 0.433
- TTTAGCCCATGGACCGGTTTTCCCGGTAATCCGTATTTGCT (site TTTAGCCCTAG) — within 0.2 log units, 0
- TTTATAGCATGGACCGGTTTTCCCGGTAATCCGTATTTGCG (site TTTATAGCTCG) — higher, 0.232
- TTTCACACATGGACCGGTTTTCCCGGTAATCCGTATTTGGA (site TTTCACACTTC) — within 0.2 log units, 0.0104
- TTTCACGCATGGACCGGTTTTCCCGGTAATCCGTATTTGGT (site TTTCACGCTAC) — within 0.2 log units, 0.0228
- TTTCCTCCATGGACCGGTTTTCCCGGTAATCCGTATTTGCG (site TTTCCTCCTCG) — within 0.2 log units, 0.0281
- TTTCGAGCATGGACCGGTTTTCCCGGTAATCCGTATTTGCA (site ATTCGAGCTTG) — higher, 0.411
- TTTCGAGCATGGACCGGTTTTCCCGGTAATCCGTATTTGCA (site CTTCGAGCTTG) — within 0.2 log units, 0.13
- TTTCGAGCATGGACCGGTTTTCCCGGTAATCCGTATTTGCA (site GTTCGAGCTTG) — higher, 0.969
- TTTCGAGCATGGACCGGTTTTCCCGGTAATCCGTATTTGCA (site TTTCGAGCTTG) — higher, 1.31
- TTTCGCACATGGACCGGTTTTCCCGGTAATCCGTATTTGCG (site TTTCGCACTCG) — within 0.2 log units, 0.00398
- TTTCGCACATGGACCGGTTTTCCCGGTAATCCGTATTTGTC (site TTTCGCACTGA) — higher, 0.308
- TTTCGCCCATGGACCGGTTTTCCCGGTAATCCGTATTTGTG (site TTTCGCCCTCA) — within 0.2 log units, 0.0225
- TTTGAATCATGGACCGGTTTTCCCGGTAATCCGTATTTGAC (site TTTGAATCTGT) — within 0.2 log units, 0
- TTTGAGACATGGACCGGTTTTCCCGGTAATCCGTATTTGGT (site ATTGAGACTAC) — within 0.2 log units, 0.0113
- TTTGAGACATGGACCGGTTTTCCCGGTAATCCGTATTTGGT (site CTTGAGACTAC) — within 0.2 log units, 0.0146
- TTTGAGACATGGACCGGTTTTCCCGGTAATCCGTATTTGGT (site GTTGAGACTAC) — within 0.2 log units, 0.0113
- TTTGAGACATGGACCGGTTTTCCCGGTAATCCGTATTTGGT (site TTTGAGACTAC) — higher, 0.511
- TTTGCGGCATGGACCGGTTTTCCCGGTAATCCGTATTTGCC (site TTTGCGGCTAG) — within 0.2 log units, 0.0224
- TTTGCGGCATGGACCGGTTTTCCCGGTAATCCGTATTTGCC (site TTTGCGGCTCG) — within 0.2 log units, 0.0088
- TTTGCGGCATGGACCGGTTTTCCCGGTAATCCGTATTTGCC (site TTTGCGGCTGG) — within 0.2 log units, 0
- TTTGCGGCATGGACCGGTTTTCCCGGTAATCCGTATTTGCC (site TTTGCGGCTTG) — within 0.2 log units, 0.0109
- TTTGCGGCATGGACCGGTTTTCCCGGTAATCCGTATTTGCG (site TTTGCGGCTAG) — within 0.2 log units, 0.00371
- TTTGCGGCATGGACCGGTTTTCCCGGTAATCCGTATTTGCG (site TTTGCGGCTCG) — within 0.2 log units, 0.0191
- TTTGCGGCATGGACCGGTTTTCCCGGTAATCCGTATTTGCG (site TTTGCGGCTGG) — within 0.2 log units, 0
- TTTGCGGCATGGACCGGTTTTCCCGGTAATCCGTATTTGCG (site TTTGCGGCTTG) — within 0.2 log units, 0.0091
- TTTGCTGCATGGACCGGTTTTCCCGGTAATCCGTATTTGCT (site TTTGCAGCTAG) — within 0.2 log units, 0
- TTTGCTGCATGGACCGGTTTTCCCGGTAATCCGTATTTGCT (site TTTGCCGCTAG) — within 0.2 log units, 0.0567
- TTTGCTGCATGGACCGGTTTTCCCGGTAATCCGTATTTGCT (site TTTGCGGCTAG) — within 0.2 log units, 0
- TTTGCTGCATGGACCGGTTTTCCCGGTAATCCGTATTTGCT (site TTTGCTGCTAG) — within 0.2 log units, 0.00917
- TTTGTCACATGGACCGGTTTTCCCGGTAATCCGTATTTGGA (site TTTGTCACTTC) — within 0.2 log units, 0.187

Test: recombinant barcode read abundance after kanamycin selection (control-corrected) (log10(CPM+1)); higher = more efficient recombination; sequences stand for … in AGTGCAGAGAAAATCGGCCAGTTTTCTCTGCCTGCAGTCCGCATGCCGT…AGATTTATGCAGCGGACTGCCTTTCTCCCAAAGTGATAAACCGGACAGTATCATGGACCGGTTTTCCCGGTAATCCGTATTTGCAAGGTTGGTTTCACT; site = the 11-nt target
Procedure: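 Pooled E. coli target-specificity screen for the IS621 bridge recombinase. Each library plasmid pairs an 11-nt target (CT core) with a bridge RNA whose target-binding loop (9-nt LTG + 4-nt RTG) is reprogrammed; the rest of the 177-nt WT IS621 bridge RNA scaffold is fixed. The plasmid is co-electroporated with a WT donor plasmid; recombinase is induced with 0.1 mM IPTG and recombinants are selected on kanamycin. Recombinant barcodes are sequenced, converted to CPM, averaged over two biological replicates and corrected by the unselected control CPM. Molecule = full bridge RNA written as DNA: LTG = specificity nt 1-9, RTG = reverse complement of specificity nt 8-11, in the WT scaffold.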

Point of comparison: “AACAGTGCTTGGGTTCTAACCTGTTGCCT (site AACAATGCTAG)”, “recombinant barcode read abundance (log10)” value 0.248. Against it:
- AAAAGTCCTTGGGTTCTAACCTGTTGCCT (site AAAAGTCCTAG) — higher, 1.11
- AAAAGTCCTTGGGTTCTAACCTGTTGCCT (site AAGAGTCCTAC) — within 0.2 log units, 0.0517
- AAAATGCCTTGGGTTCTAACCTGTTGCCT (site AAAATGCCTAG) — within 0.2 log units, 0.359
- AAAATGCCTTGGGTTCTAACCTGTTGCCT (site CAAATGTCTAG) — within 0.2 log units, 0.0967
- AAACGACCTTGGGTTCTAACCTGTTGCCT (site AAACGACCTAG) — higher, 1.59
- AAACGACCTTGGGTTCTAACCTGTTGCCT (site CAACGACCTAG) — within 0.2 log units, 0.291
- AAACGACCTTGGGTTCTAACCTGTTGCCT (site GAACGACCTAG) — within 0.2 log units, 0.0625
- AAACGACCTTGGGTTCTAACCTGTTGCCT (site TAACGACCTAG) — higher, 0.801
- AAAGCTACTTGGGTTCTAACCTGTTGCTA (site AAAGCTACTTA) — higher, 0.86
- AAAGCTACTTGGGTTCTAACCTGTTGCTA (site TGGTAGTCTAC) — within 0.2 log units, 0.0812
- AAAGTGTCTTGGGTTCTAACCTGTTGCCT (site AAAGTGTCTAG) — higher, 2.97
- AAAGTGTCTTGGGTTCTAACCTGTTGCCT (site AACGTGTCTAG) — within 0.2 log units, 0.373
- AAAGTGTCTTGGGTTCTAACCTGTTGCCT (site AAGGTGTCTAG) — higher, 0.489
- AAAGTGTCTTGGGTTCTAACCTGTTGCCT (site AATGTGTCTAG) — higher, 0.65
- AAATCGTCTTGGGTTCTAACCTGTTGCCT (site AAATCGTCTAG) — higher, 0.817
- AAATCGTCTTGGGTTCTAACCTGTTGCCT (site AACACGTCTAG) — within 0.2 log units, 0.176
- AACAGCTCTTGGGTTCTAACCTGTTGCCT (site AACAGCTCTAG) — higher, 1.75
- AACAGCTCTTGGGTTCTAACCTGTTGCCT (site AACAGTTCTAG) — within 0.2 log units, 0.15
- AACAGTGCTTGGGTTCTAACCTGTTGCCT (site AACACTGCTAG) — within 0.2 log units, 0.219
- AACAGTGCTTGGGTTCTAACCTGTTGCCT (site AACAGTGCTAG) — higher, 0.73

Source: the supplement of paper PMC11208160
